The first assay addresses human erythrocyte 20S proteasome (Homo sapiens, UniProt P28074). As to the kind of experiment: 20S proteasome inhibition assay (chymotrypsin-like activity, Suc-LLVY-AMC substrate).
Settings: not given
As for `COC1=CC(=O)OC(CO)C1` (centres unmarked) [Compound 5, 6-hydroxymethyl-4-methoxy-5,6-dihydro-2H-pyran-2-one], inhibition was half-maximal at 20.5 ± 2.3 µM (IC50).

In the case of `CCC[C@@H](O)[C@H](O)C1CC(OC)=CC(=O)O1` (some centres unmarked) [Compound 9, LL-P880b], half-maximal inhibition (IC50) was put at 8.9 ± 1.5 µM.

For the molecule `CCC(O)C[C@H](O)C1CC(OC)=CC(=O)O1` (some centres unmarked) [Compound 10, photipyrone B], half-maximal inhibition (IC50) was put at 7.9 ± 1.8 µM.

As for `COc1cc(C(C)C(C)O)oc(=O)c1` (centres unmarked) [Compound 7, pestalotiopyrone E], the IC50 – broadly, the concentration that gives 50% inhibition – was over 100 µM.

The molecule `C=C(C)[C@@H](O)[C@H](O)c1ccc2c(c1OC)C(=O)OCc1cc(C)cc(O)c1O2` [Compound 2, pestalotiollide B] had an IC50 of 18.5 ± 4.2 µM.

In turn, `COc1c(/C=C/C(C)(C)O)ccc2c1C(=O)OCc1cc(C)cc(O)c1O2` [Compound 4, dehydroisopenicillide] returned an IC50 of over 100 µM.

Regarding `COc1cc(C(C)(O)C(C)O)oc(=O)c1` (centres unmarked) [Compound 6, pestalotiopyrone D], the concentration for half-maximal inhibition (IC50) is over 100 µM.

Molecule `COc1c(/C=C/C(C)(C)OC)ccc2c1C(=O)OCc1cc(C)cc(O)c1O2` [Compound 1, 3′-O-methyldehydroisopenicillide] came in with a concentration for half-maximal inhibition (IC50) of 30.5 ± 1.5 µM.

The molecule `C=C(C)[C@@H](O)[C@@H](O)c1ccc2c(c1OC)C(=O)OCc1cc(C)cc(O)c1O2` [Compound 3, pestalotiollide A] returned an IC50 of 12.4 ± 1.1 µM.

Molecule `C/C=C(/C)c1cc(OC)cc(=O)o1` [Compound 8, pestalotiopyrone G] gave a half-inhibitory concentration (IC50) of 1.2 ± 0.3 µM.

Staying with this assay, now noted: chymotrypsin-like activity.
As for `C/C=C(/C)c1cc(OC)cc(=O)o1` [Compound 8, pestalotiopyrone G], the “20S proteasome inhibitory activity (in words)” value was “strong activity”.
